Values joined by “and” are separate entries in the source; they are usually repeats but may differ in a detail not shown here. Equal entries are not always repeated.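 Growth conditions: 96-well plates. Treatment: test compound, 48 hours, 5 concentrations. Analysis: linear interpolation between bracketing concentrations; unreached endpoints set to highest concentration. GI50: concentration for 50% inhibition of growth. TGI denotes the concentration required for complete inhibition of growth.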
What was measured:
Test in all cases: NCI tumour cell line growth inhibition, 48 h
MDA-MB-231 breast = system: MDA-MB-231 breast
NCI-H226 lung = system: NCI-H226 lung
K-562 leukemia = system: K-562 leukemia
SF-539 CNS = system: SF-539 CNS
T-47D breast = system: T-47D breast
MCF7 breast = system: MCF7 breast
RXF 393 renal = system: RXF 393 renal
NCI/ADR-RES ovarian = system: NCI/ADR-RES ovarian
SNB-19 CNS = system: SNB-19 CNS
SK-MEL-5 melanoma = system: SK-MEL-5 melanoma

| Compound | GI50 (MDA-MB-231 breast) [µM] | TGI (MDA-MB-231 breast) [µM] | GI50 (NCI-H226 lung) [µM] | TGI (NCI-H226 lung) | GI50 (K-562 leukemia) [µM] | TGI (K-562 leukemia) [µM] | GI50 (SF-539 CNS) | TGI (SF-539 CNS) | GI50 (T-47D breast) [µM] | TGI (T-47D breast) [µM] | GI50 (MCF7 breast) [µM] | TGI (MCF7 breast) [µM] | GI50 (RXF 393 renal) | TGI (RXF 393 renal) | GI50 (NCI/ADR-RES ovarian) [µM] | TGI (NCI/ADR-RES ovarian) [µM] | GI50 (SNB-19 CNS) | TGI (SNB-19 CNS) | GI50 (SK-MEL-5 melanoma) [µM] | TGI (SK-MEL-5 melanoma) [µM] |
| --- | --- | --- | --- | --- | --- | --- | --- | --- | --- | --- | --- | --- | --- | --- | --- | --- | --- | --- | --- | --- |
| CCN(CC)C1CCC(Nc2c(C(C)=O)cnc3ccc(-c4ccc(O)c(Cl)c4)cc23)CC1 (stereo not drawn) | 0.741 | 12.5 | 2.16 | 22.6 µM | 0.125 | 5.72 | 0.551 µM | 7.87 µM | 1.94 | > 100 | 0.229 | 1.42 | 0.615 µM | 2.28 µM | 0.821 | 5.55 | 1.75 µM | 69.6 µM | 0.782 | 4.55 |
| CC(=O)Nc1ccc(COC(O)CN2CCCCC2)cc1[N+](=O)[O-] (stereo not drawn) |  | > 100 |  | > 100 µM |  | > 100 |  | > 100 µM |  | > 100 |  | > 100 |  | > 100 µM |  | > 100 |  | > 100 µM |  | > 100 |
| O=S(=O)(/N=c1/scc(-c2ccccc2)n1-c1ccccc1)c1ccc(N2N=C3c4ccccc4CC3C2c2cccs2)cc1 (stereo not drawn) | 52.1 | > 100 | 78.9 | > 100 µM |  | > 100 | > 100 µM | > 100 µM | > 100 | > 100 | 29.1 | > 100 | 98.2 µM | > 100 µM | > 100 | > 100 | > 100 µM | > 100 µM | 48 | > 100 |
| COc1cc(/C=C2\C[C@H]3[C@@H]4CC=C5C[C@@H](O)CC[C@]5(C)[C@H]4CC[C@]3(C)[C@H]2O)ccc1OCCCn1ccnc1 | 0.863 | 1.74 | 4.09 | 15.2 µM | 2.69 | > 50 | 1.05 µM | 2.09 µM | 17.7 | > 50 | 2.63 | 27.7 | 2.52 µM | 43.4 µM | 13.6 | > 50 | 12.4 µM | > 50 µM | 4.15 | 12.4 |
| Cc1ccc(Cl)c(Nc2ccccc2C(=O)O)c1Cl | 32.1 | > 100 | 28 | 82.4 µM | 33.2 | > 100 | 23.6 µM | 51.3 µM | 33.4 | > 100 | 34.2 | > 100 | 19.8 µM | 46.8 µM | 26.3 | 80.9 | 35 µM | > 100 µM | 18.2 | 33.5 |
| O=c1ssc(Cl)c1Cl |  | > 10 |  | > 10 µM |  | 9.04 |  | > 10 µM |  | > 10 |  | > 10 |  | > 10 µM |  | > 10 |  | > 10 µM |  | > 10 |
| CCOc1cccc(-c2nc(N)nc(Nc3ccccc3SSc3ccccc3Nc3nc(N)nc(-c4cccc(OCC)c4)n3)n2)c1 | 3.72 | 27 | 4.5 | > 100 µM | 3.33 | > 100 | 9.2 µM | > 100 µM | 2.42 | > 100 | 4.97 | > 100 | 2.86 µM | 8.75 µM | 3.32 | > 100 | 4.94 µM | > 100 µM | 6.8 | > 100 |
| Cn1c(NCC(O)CN2CCCC2)cc(=O)n(C)c1=O (stereo not drawn) | > 100 | > 100 | > 100 | > 100 µM | > 100 | > 100 | > 100 µM | > 100 µM | > 100 | > 100 | > 100 | > 100 | > 100 µM | > 100 µM | > 100 | > 100 | > 100 µM | > 100 µM | > 100 | > 100 |
| O=C1c2ccccc2-c2c1c1ccccc1c(=O)n2CCCNCCCCNCCCN1C(=O)c2ccccc2C2C(=O)c3ccccc3C21 (stereo not drawn) | 0.284 | 1.04 | 0.575 | 2.19 µM | 0.182 | 0.727 | 0.0919 µM | 0.759 µM | 0.643 | 1.77 | 0.0361 | 1.9 | 0.0305 µM | 0.823 µM | 0.859 | 2.63 | 0.57 µM | 1.93 µM | 0.939 | 3.93 |
| O=C(O)c1ccc(C(=O)O)c(C(=O)Nc2ccc3c(c2)C(=O)c2ccccc2-3)c1 |  | > 100 |  | > 100 µM |  | > 100 |  | > 100 µM |  | > 100 |  | > 100 |  | > 100 µM |  | > 100 |  | > 100 µM |  | > 100 |
| COc1ccc(C2C(C)C(=O)C(C)C(c3ccc(OC)cc3)N2N=O)cc1 (stereo not drawn) |  | 132 | > 88.4 | > 75 µM and 457 µM | > 750 | > 1000 | 18 µM and 41.3 µM | 46.8 µM and 341 µM and 222 µM |  | 713 |  | > 1000 | 20.7 µM and 67.6 µM | 64.8 µM and 216 µM and 122 µM |  | > 1000 | > 71 µM and 73.1 µM | 750 µM and > 873 µM | > 750 | > 750 |
| O=C(Nc1ccccc1)c1cc(S(=O)(=O)Nc2nc3ccccc3o2)c(SCc2ccccc2)cc1Cl | 18.3 | 42.4 | 21.5 | 50.7 µM | 20.5 | 68.7 | 15.8 µM | 31.1 µM | 22.5 | 91.3 | 28.4 | 80.6 | 19.7 µM | 47.7 µM | 26.1 | 66.3 | 37 µM | > 100 µM | 14.1 | 28 |
| COc1cc2c(cc1OC)C1Cc3cc(OC)c(OC)cc3C(C2)N1C |  | > 75 |  | > 75 µM |  | > 100 |  | > 75 µM |  | > 75 |  | > 75 |  | > 75 µM |  | > 75 |  | > 100 µM |  | > 100 |
| Cn1c(=O)c(Oc2ccc(F)cc2F)cc2cnc(NC3CCS(=O)(=O)CC3)nc21 | > 22 | > 25 | > 25 | > 25 µM | > 25 | > 25 | > 25 µM | > 25 µM | > 19.8 | > 25 | > 25 | > 25 | > 25 µM | > 25 µM | > 25 | > 25 | > 25 µM | > 25 µM | > 25 | > 25 |
| CCCCCCCCCCCCCCCCC(=O)O.CCCCCCCCCCCCCCCCCC(=O)O.CCCCCCCCCCCCCCCCCC(=O)O.CCCCCCCCCCCCCCCCCC(=O)O.CCCCCCCCCCCCCCCCCC(=O)O.CO[CH-]OC12COC1CC(O)C1(C)C(O)C(OC(C)O)C3=C(C)C(OC(=O)C(O)C([NH-])c4ccccc4)CC(O)(C(OC(=O)c4ccccc4)C21)C3(C)C.[Cu+].[Zn].[Zn].[Zn].[Zn].[Zn] (stereo not drawn) | 0.0135 | 4.48 | 0.277 | 8.05 µM | 0.005 | > 25 | 0.00598 µM | 0.0506 µM | 0.00863 | > 25 | 0.00262 | 3.83 |  | 0.21 µM | 2.31 | 24.6 | 0.0105 µM | > 11.5 µM |  | 3.57 |
| CN1C/C=C/CCOc2cccc(c2)-c2ccnc(n2)Nc2cccc(c2)C1 | 0.0731 | 1.08 | 0.0347 | 0.442 µM | 0.0989 | > 20.8 | 0.0338 µM | 0.155 µM | 0.0437 | 0.447 | 0.0309 | 1.17 | 0.0207 µM | 0.0447 µM | 0.0561 | 0.963 | 0.0574 µM | 4.4 µM | 0.0318 | 0.222 |
| CC(=O)OC12COC1CC(O)C1(C)C(=O)C(O)C3=C(C)C(O)CC(O)(C(OC(=O)c4ccccc4)C21)C3(C)C (stereo not drawn) |  | > 100 |  | > 100 µM |  | > 100 |  | 5.51 µM |  | > 100 |  | > 100 |  | > 100 µM |  | > 100 |  | > 100 µM |  | 29.5 |
| COc1cc(-c2c(C#N)c(N)nc(N3CCOCC3)c2C#N)cc(OC)c1OC | 22.6 | 78.9 | > 100 | > 100 µM | > 100 | > 100 | > 100 µM | > 100 µM | 15.1 | > 100 | > 100 | > 100 | > 100 µM | > 100 µM | > 100 | > 100 | 89.9 µM | > 100 µM | > 100 | > 100 |
| COc1ccc(-n2ccnc2-c2cc(OC)c(OC)c(OC)c2)cc1 | 6.13 | > 100 | 24 | > 100 µM | 3.14 | > 100 | 3.27 µM | 29.1 µM | 8.48 | > 100 | 1.55 | > 100 | 1.87 µM | 11.9 µM | 1.85 | 7.82 | 4.64 µM | > 100 µM | 1.91 | 11.1 |

— PubChem BioAssay (NCI)
